± gives the standard deviation of the averaged measurements.
What was measured:
Test in all cases: level (log10 ratio to DMSO vehicle control); higher = higher biomarker level / cell amount than vehicle control
Conditions in all cases: in DMSO
[1] = compound: O=C(O)C(F)(F)C(F)(F)C(F)(F)C(F)(F)C(F)(F)C(F)(F)C(F)(F)C(F)(F)C(F)(F)C(F)(F)C(F)(F)C(F)(F)C(F)(F)F [Perfluorotetradecanoic acid]
Procedure: (§1)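 BioMAP Diversity Plus panel of 12 human primary cell co-culture systems (3C, 4H, LPS, SAg, BT, BF4T, BE3C, CASM3C, HDF3CGF, KF3CT, MyoF, Mphg). Compounds were added 1 h before stimulation and left for 24 h (MyoF 48 h; BT 72 h for soluble read-outs or 6 d for IgG). Biomarkers were read by ELISA, cytotoxicity by SRB, PBMC viability and proliferation by Alamar Blue. Each well value was divided by the mean of 8 DMSO control wells on the same plate and log10 transformed; duplicate blinded samples were tested at 4 concentrations.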

[2] = compound: O=S(=O)(O)C(F)(F)C(F)(F)C(F)(F)C(F)(F)C(F)(F)C(F)(F)C(F)(F)C(F)(F)F [Perfluorooctanesulfonic acid]
Procedure: as §1

[3] = compound: CC(C)(C)C(=O)CC(=O)C(F)(F)C(F)(F)C(F)(F)F [(Heptafluorobutanoyl)pivaloylmethane]
Procedure: as §1

[4] = compound: O=C(O)CCC(F)(F)C(F)(F)C(F)(F)C(F)(F)C(F)(F)F [2H,2H,3H,3H-Perfluorooctanoic acid]
Procedure: as §1

[5] = compound: CNS(=O)(=O)C(F)(F)C(F)(F)C(F)(F)C(F)(F)C(F)(F)C(F)(F)C(F)(F)C(F)(F)F [N-Methylperfluorooctanesulfonamide]
Procedure: as §1

[6] = compound: C=C(C)C(=O)OCC(F)(F)C(F)(F)C(F)(F)C(F)(F)C(F)(F)C(F)(F)C(F)(F)F
Procedure: as §1

Hexafluoroglutaric acid = compound: O=C(O)C(F)(F)C(F)(F)C(F)(F)C(=O)O [Hexafluoroglutaric acid]
Procedure: as §1

Row | Test System | level (log10) ([1]; 6700 nM) | level (log10) ([1]; 20000 nM) | level (log10) ([2]; 6700 nM) | level (log10) ([2]; 20000 nM) | level (log10) ([2]; 60000 nM) | level (log10) ([3]; 6700 nM) | level (log10) ([3]; 20000 nM) | level (log10) ([3]; 60000 nM) | level (log10) ([4]; 6700 nM) | level (log10) ([4]; 20000 nM) | level (log10) ([4]; 60000 nM) | level (log10) ([5]; 6700 nM) | level (log10) ([5]; 20000 nM) | level (log10) ([5]; 60000 nM) | level (log10) ([6]; 6700 nM) | level (log10) ([6]; 20000 nM) | level (log10) (Hexafluoroglutaric acid; 6700 nM) | level (log10) (Hexafluoroglutaric acid; 20000 nM) | level (log10) (Hexafluoroglutaric acid; 60000 nM)
1 | CASM3C:CCL2/MCP-1 | -0.0615 ± 0.036 | -0.03 ± 0.021 | -0.0025 ± 0.015 | -0.0065 ± 0.0064 | 0.019 ± 0.023 | -0.008 ± 0.017 | -0.0025 ± 0.021 | -0.0075 ± 0.0092 | -0.002 ± 0.014 | 0.002 ± 0.0042 | 0.013 ± 0.028 | 0.0095 ± 0.022 | 0.0295 ± 0.012 | 0.0645 ± 0.039 | -0.015 ± 0.0042 | 0.007 ± 0.018 | -0.0115 ± 0.033 | -0.024 ± 0.025 | 0.0205 ± 0.039
2 | HDF3CGF:CCL2/MCP-1 | 0.0235 ± 0.016 | 0.0285 ± 0.029 | -0.005 ± 0.0042 | -0.013 ± 0.0071 | 0.01 ± 0.033 | -0.0285 ± 0.016 | 0.027 | -0.0065 ± 0.025 | 0.0015 ± 0.029 | 0.003 ± 0.0085 | 0.0065 ± 0.0078 | 0.034 ± 0.0085 | 0.0305 ± 0.0035 | 0.029 ± 0.014 | -0.0205 ± 0.03 | -0.007 ± 0.0042 | -0.01 ± 0.0028 | -0.0215 ± 0.012 | -0.005 ± 0.0042
3 | 3C:CD141/Thrombomodulin | -0.0165 ± 0.036 | -0.024 ± 0.042 | -0.0015 ± 0.012 | -0.0025 ± 0.011 | 0.0455 ± 0.022 | -0.0095 ± 0.015 | 0.024 ± 0.011 | 0.187 ± 0.014 | -0.032 ± 0.078 | -0.0295 ± 0.022 | -0.0405 ± 0.029 | -0.002 ± 0.0085 | -0.009 ± 0.018 | -0.0345 ± 0.013 | -0.038 ± 0.0057 | -0.0015 ± 0.032 | -0.018 ± 0.017 | -0.014 ± 0.011 | -0.034 ± 0.0099
4 | lMphg:CD69 | -0.02 ± 0.038 | -0.007 ± 0.089 | -0.046 | -0.0585 ± 0.029 | -0.102 ± 0.091 | -0.0145 ± 0.0021 | -0.0025 ± 0.0078 | 0.051 ± 0.011 | -0.032 ± 0.05 | -0.0325 ± 0.063 | -0.016 ± 0.031 | -0.0715 ± 0.03 | -0.0165 ± 0.013 | 0.061 ± 0.027 | -0.0135 ± 0.018 | -0.004 ± 0.038 | -0.037 ± 0.028 | -0.0325 ± 0.0021 | -0.0525 ± 0.015
5 | lMphg:CCL2/MCP-1 | -0.013 ± 0.014 | -0.004 ± 0.0099 | -0.0055 ± 0.0092 | 0.0015 ± 0.0064 | -0.0075 ± 0.04 | -0.0135 ± 0.025 | -0.018 ± 0.0071 | -0.0255 ± 0.021 | 0.007 ± 0.016 | -0.0115 ± 0.005 | -0.01 | -0.034 ± 0.0099 | -0.061 ± 0.033 | -0.0465 ± 0.04 | -0.009 ± 0.021 | 0.008 ± 0.02 | -0.046 ± 0.052 | -0.0305 ± 0.037 | -0.0235 ± 0.011
6 | BE3C:Keratin 8/18 | -0.004 ± 0.03 | -0.011 ± 0.045 | 0.0205 ± 0.0021 | 0.016 ± 0.011 | -0.073 ± 0.04 | 0.009 ± 0.0014 | 0.009 ± 0.0057 | 0.001 ± 0.025 | 0.0065 ± 0.0021 | -0.015 ± 0.011 | -0.004 ± 0.0057 | -0.0025 ± 0.012 | -0.0135 ± 0.0078 | -0.0055 ± 0.023 | -0.008 ± 0.017 | -0.028 ± 0.027 | -0.006 ± 0.0085 | -0.018 ± 0.0014 | -0.003 ± 0.0042
7 | lMphg:IL-1alpha | 0.021 ± 0.068 | 0.004 ± 0.05 | 0.0015 ± 0.022 | 0.0075 ± 0.013 | 0.017 ± 0.0085 | 0.0265 ± 0.042 | 0.0005 ± 0.0021 | 0.0175 ± 0.013 | 0.03 ± 0.028 | 0.0675 ± 0.071 | 0.129 ± 0.067 | 0.075 ± 0.017 | 0.132 ± 0.035 | 0.15 ± 0.013 | -0.0265 ± 0.029 | 0.005 ± 0.13 | -0.004 ± 0.0057 | -0.0095 ± 0.023 | -0.022 ± 0.031
8 | HDF3CGF:TIMP-1 | 0.014 ± 0.037 | -0.0385 ± 0.11 | -0.0015 ± 0.021 | 0.0165 ± 0.026 | 0.0895 ± 0.061 | -0.011 ± 0.03 | -0.0005 ± 0.005 | 0.0085 ± 0.018 | -0.019 ± 0.064 | -0.01 ± 0.11 | -0.047 ± 0.17 | 0.0335 ± 0.016 | -0.025 ± 0.038 | 0.012 ± 0.02 | 0.041 ± 0.038 | 0.036 ± 0.03 | -0.0385 ± 0.026 | -0.02 ± 0.072 | -0.045 ± 0.073
9 | CASM3C:Serum Amyloid A | 0.033 ± 0.048 | -0.007 ± 0.014 | 0.0035 ± 0.0021 | -0.017 ± 0.0014 | -0.005 ± 0.04 | 0.014 ± 0.035 | 0.001 ± 0.064 | -0.009 ± 0.024 | -0.0045 ± 0.0078 | -0.0195 ± 0.0092 | -0.0495 ± 0.028 | 0.0135 ± 0.0078 | 0.0445 ± 0.0078 | 0.073 ± 0.041 | -0.014 ± 0.0028 | -0.009 ± 0.0042 | 0.0395 ± 0.049 | 0.027 ± 0.018 | 0.0085 ± 0.019
10 | HDF3CGF:Proliferation 72hr | 0.0655 ± 0.046 | -0.063 ± 0.054 | 0.141 ± 0.05 | 0.15 ± 0.048 | -0.544 ± 0.18 | -0.0465 ± 0.028 | 0.097 ± 0.031 | 0.094 ± 0.014 | -0.002 ± 0.054 | 0.007 ± 0.033 | 0.023 ± 0.018 | -0.001 ± 0.073 | 0.0205 ± 0.073 | -0.056 ± 0.095 | 0.019 ± 0.018 | 0.001 ± 0.038 | -0.011 ± 0.059 | -0.013 ± 0.028 | -0.008 ± 0.05
11 | MyoF:Collagen III | -0.015 | -0.002 ± 0.03 | -0.0265 ± 0.026 | -0.025 ± 0.0071 | -0.0385 ± 0.012 | -0.0115 ± 0.0021 | -0.002 ± 0.013 | 0.026 ± 0.0028 | -0.021 ± 0.023 | -0.026 ± 0.024 | -0.0115 ± 0.022 | -0.0185 ± 0.016 | -0.007 ± 0.018 | -0.0175 ± 0.005 | -0.014 ± 0.0014 | -0.014 ± 0.0042 | 0.006 ± 0.0042 | 0.0035 ± 0.005 | 0.0055 ± 0.00071
12 | KF3CT:CXCL9/MIG | -0.0065 ± 0.016 | 0.0055 ± 0.00071 | -0.007 ± 0.0042 | 0.0025 ± 0.0035 | 0.0075 ± 0.012 | 0.0025 ± 0.0035 | -0.002 ± 0.0042 | 0.0055 ± 0.0021 | -0.004 ± 0.011 | 0.0025 ± 0.0092 | 0.0075 ± 0.00071 | -0.008 ± 0.0057 | -0.0015 ± 0.0092 | -0.0035 ± 0.023 | 0.007 ± 0.0028 | 0.006 ± 0.0028 | -0.007 ± 0.0014 | -0.0075 ± 0.0064 | -0.0065 ± 0.0021
13 | CASM3C:SRB | -0.011 ± 0.0028 | 0.0025 ± 0.0092 | 0.003 ± 0.0042 | 0.0005 ± 0.0064 | 0.0095 ± 0.011 | 0.01 ± 0.0014 | -0.002 ± 0.0014 | 0.0035 ± 0.00071 | -0.0045 ± 0.015 | -0.0105 ± 0.00071 | -0.0105 ± 0.0021 | 0.01 ± 0.0014 | -0.0015 ± 0.0021 | 0.002 ± 0.0028 | -0.0005 ± 0.00071 | 0 ± 0.0071 | -0.001 ± 0.0028 | -0.0035 ± 0.0021 | 0.0065 ± 0.005
14 | MyoF:MMP-1 | -0.0305 ± 0.015 | 0.002 ± 0.017 | -0.031 ± 0.0014 | -0.031 ± 0.013 | 0.038 ± 0.048 | -0.036 ± 0.013 | -0.0255 ± 0.025 | 0.025 ± 0.058 | -0.017 ± 0.041 | -0.044 ± 0.0099 | -0.007 ± 0.033 | -0.036 ± 0.013 | -0.0325 ± 0.018 | 0.008 ± 0.02 | -0.0245 ± 0.0092 | 0.0025 ± 0.086 | 0 ± 0.0085 | -0.0115 ± 0.012 | -0.008 ± 0.014
15 | CASM3C:CD87/uPAR | -0.0305 ± 0.057 | -0.0375 ± 0.026 | -0.0005 ± 0.0078 | -0.0085 ± 0.015 | -0.016 ± 0.016 | 0.003 ± 0.02 | -0.0235 ± 0.0064 | -0.014 ± 0.023 | -0.008 ± 0.013 | -0.011 ± 0.0071 | -0.0305 ± 0.0092 | -0.0035 ± 0.0064 | -0.0255 ± 0.022 | -0.0495 ± 0.013 | 0.0005 ± 0.0035 | 0.003 ± 0.023 | -0.001 ± 0.014 | -0.0185 ± 0.033 | -0.0075 ± 0.0035

— the supplement of paper PMC10331698
